Measured values from ChEMBL document CHEMBL1133439, “Synthesis and biological evaluation of enantiopure thionitrites: the solid-phase synthesis and nitrosation of D-glutathione as a molecular probe” (Bioorg Med Chem Lett, 2000).

How the values were obtained:
Rattus norvegicus [1] = organism: Rattus norvegicus; experiment: Effective concentration required for relaxation of rat aortic rings; assay type: functional; conditions: Aorta
Rattus norvegicus [2] = organism: Rattus norvegicus; experiment: Percentage Inhibition of relaxation of phenylephrine-induced tone in rat aortic smooth muscle at ~1000 nM; assay type: functional, Aorta
Rattus norvegicus [3] = organism: Rattus norvegicus; experiment: Percentage Inhibition of relaxation of phenylephrine-induced tone in rat aortic smooth muscle at ~100 nM; assay type: functional, Aorta
Rattus norvegicus [4] = organism: Rattus norvegicus; experiment: Percentage Inhibition of relaxation of phenylephrine-induced tone in rat aortic smooth muscle at ~5000 nM; assay type: functional, Aorta
Rattus norvegicus [5] = organism: Rattus norvegicus; experiment: Percentage Inhibition of relaxation of phenylephrine-induced tone in rat aortic smooth muscle at ~600 nM; assay type: functional, Aorta
Rattus norvegicus [6] = organism: Rattus norvegicus; experiment: Percentage Inhibition of relaxation of phenylephrine-induced tone in rat aortic smooth muscle at ~10000 nM; assay type: functional, Aorta
Rattus norvegicus [7] = organism: Rattus norvegicus; experiment: Percentage Inhibition of relaxation of phenylephrine-induced tone in rat aortic smooth muscle at ~10 nM; assay type: functional, Aorta
Rattus norvegicus [8] = organism: Rattus norvegicus; experiment: Percentage Inhibition of relaxation of phenylephrine-induced tone in rat aortic smooth muscle at ~500 nM; assay type: functional, Aorta

Row | SMILES | EC50 (Rattus norvegicus [1]) | Inhibition (Rattus norvegicus [2]) | Inhibition (Rattus norvegicus [3]) | other results
1 | N[C@H](CCC(=O)N[C@H](CSN=O)C(=O)NCC(=O)O)C(=O)O | 290 nM | 80% | 25% | Inhibition (Rattus norvegicus [4]): 100%; Inhibition (Rattus norvegicus [5]): 50%
2 | N[C@H](CSN=O)C(=O)O | 2.1 nM |  |  | 
3 | N[C@@H](CSN=O)C(=O)O | 2 nM |  |  | 
4 | CC(=O)N[C@H](C(=O)O)C(C)(C)SN=O | 476 nM |  |  | 
5 | CC(=O)N[C@@H](C(=O)O)C(C)(C)SN=O | 492 nM |  |  | 
6 | N[C@@H](CCC(=O)N[C@@H](CSN=O)C(=O)NCC(=O)O)C(=O)O [S-NITROSOGLUTATHIONE] | 108 nM | 90% | 50% | Inhibition (Rattus norvegicus [6]): 100%; Inhibition (Rattus norvegicus [7]): 20%; Inhibition (Rattus norvegicus [8]): 80%
